Data published in US7544707B2, “Bicyclic derivatives as PPAR modulators” (Eli Lilly and Company, priority 2003, dated 2009).

## CC(C)(Oc1ccc(OCc2ccc3nn(-c4ccc(C(F)(F)F)cc4)cc3c2)cc1)C(=O)O [Example 65, 2-Methyl-2-{4-[2-(4-trifluoromethylphenyl)-2H-indazol-5-ylmethoxy]phenoxy}propionic Acid]
  melting point: 203 to 205 °C
